From patent US6958341B2, “Pyrazolopyrimidines as CRF antagonists” (Bristol-Myers Squibb Pharma Company, priority 1999, dated 2005)

melting point: 227 to 228 °C
SMILES: CCC(CC)c1c(O)nn2c(-c3ccc(Cl)cc3Cl)c(C)cnc12 [Example 92, 7-(2,4-dichlorophenyl)-2-hydroxy-6-methyl-3-(3-pentyl)pyrazolo[1,5-a]pyrimidine]
